Data: US6680335B2, “Methods of modulating protein tyrosine kinase function with substituted indolinone compounds” (Sugen, Inc., priority 1998, dated 2004)

Assays:
src protein kinase = biological target: T1, src protein kinase (Gallus gallus, UniProt P00523); experiment: Assay measuring SRC protein kinase activity (phosphorylation of a biotinylated peptide); format: biochemical; conditions: src from transformed yeast lysate, 5 μM ATP; compound at 100 μM
T1 construct: made in house; host or cells: Schizosaccharomyces pombe strain SP200, pRSP expression plasmids
Experimental: This assay is used to determine src protein kinase activity measuring phosphorylation of a biotinylated peptide as the readout.
a. Yeast transformed with src.
b. Cell lysates: Yeast cells expressing src are pelleted, washed once with water, re-pelleted and stored at −80° C. until use.
(§1) c. N-terminus biotinylated […] is prepared by standard procedures well known to those skilled in the art.
(§2) h. […] S. Pombe strain SP200 (h-s leul.32 ura4 ade21O) was grown as described and transformations were pRSP expression plasmids were done by the lithium acetate method (Superti-Furga, supra). Cells were grown in the presence of 1 μM thiamine to repress expression from the nmtl promoter or in the absence of thiamine to induce expression.
a. Preparation of src coated ELISA plate.
1. Coat ELISA plate with 0.5 μg/well anti-src mab in 100 μL of pH 9.6 sodium carbonate buffer at 4° C. overnight.
(§3) 2. Wash wells once with PBS.
(§4) 3. Block plate with 0.15 mL 5% milk in PBS for 30 min. at room temperature.
(§5) 4. Wash plate 5× with PBS.
5. Add 10 μg/well of src transformed yeast lysates diluted in Lysis Buffer (0.1 mL total volume per well). (Amount of lysate may vary between hatches.) Shake plate for 20 minutes at room temperature.
(§6) b. Preparation of phosphotyrosine antibody-coated ELISA plate.
(§7) 1. 4G10 plate: coat 0.5 μg/well 4G10 in 100 μL PBS overnight at 4° C. and block with 150 μL of 5% milk in PBS for 30 minutes at room temperature.
(§8) c. Kinase assay procedure.
(§9) 1. Remove unbound proteins from steps 1-7, above, and wash plates 5× with PBS.
2. Add 0.08 mL Kinase Reaction Mixture per well (containing 10 μL of 10×Kinase Buffer and 10 μM (final concentration) biotin-[…] per well diluted in water.
(§10) 3. Add 10 μL of compound diluted in water containing 10% DMSO and pre-incubate for 15 minutes at room temperature.
(§11) 4. Start kinase reaction by adding 10 μL/well of 0.05 mM ATP in water (5 μM ATP final).
(§12) 5. Shake ELISA plate for 15 min. at room temperature.
(§13) 6. Stop kinase reaction by adding 10 μL of 0.5 M EDTA per well.
(§14) 7. Transfer 90 μL supernatant to a blocked 4G10 coated ELISA plate from section B, above.
(§15) 8. Incubate for 30 min. while shaking at room temperature.
(§16) 9. Wash plate 5× with TBST.
(§17) 10. Incubate with Vectastain ELITE ABC reagent (100 μL/well) for 30 min. at room temperature.
(§18) 11. Wash the wells 5× with TBST.
(§19) 12. Develop with Turbo TMB.
(§20) The IC50 values were measured for several of the compounds of the invention.

pyk-2 protein kinase = biological target: T2, pyk-2 protein kinase (Homo sapiens, UniProt Q14289); experiment: Assay measuring PYK-2 protein kinase activity (phosphorylation of a biotinylated peptide); format: biochemical; conditions: pyk-2 from transformed yeast lysate, 5 μM ATP; compound at 100 μM
T2 construct: made in house; host or cells: Schizosaccharomyces pombe strain SP200, pRSP expression plasmids
T2 sequence (Q14289 whole entry): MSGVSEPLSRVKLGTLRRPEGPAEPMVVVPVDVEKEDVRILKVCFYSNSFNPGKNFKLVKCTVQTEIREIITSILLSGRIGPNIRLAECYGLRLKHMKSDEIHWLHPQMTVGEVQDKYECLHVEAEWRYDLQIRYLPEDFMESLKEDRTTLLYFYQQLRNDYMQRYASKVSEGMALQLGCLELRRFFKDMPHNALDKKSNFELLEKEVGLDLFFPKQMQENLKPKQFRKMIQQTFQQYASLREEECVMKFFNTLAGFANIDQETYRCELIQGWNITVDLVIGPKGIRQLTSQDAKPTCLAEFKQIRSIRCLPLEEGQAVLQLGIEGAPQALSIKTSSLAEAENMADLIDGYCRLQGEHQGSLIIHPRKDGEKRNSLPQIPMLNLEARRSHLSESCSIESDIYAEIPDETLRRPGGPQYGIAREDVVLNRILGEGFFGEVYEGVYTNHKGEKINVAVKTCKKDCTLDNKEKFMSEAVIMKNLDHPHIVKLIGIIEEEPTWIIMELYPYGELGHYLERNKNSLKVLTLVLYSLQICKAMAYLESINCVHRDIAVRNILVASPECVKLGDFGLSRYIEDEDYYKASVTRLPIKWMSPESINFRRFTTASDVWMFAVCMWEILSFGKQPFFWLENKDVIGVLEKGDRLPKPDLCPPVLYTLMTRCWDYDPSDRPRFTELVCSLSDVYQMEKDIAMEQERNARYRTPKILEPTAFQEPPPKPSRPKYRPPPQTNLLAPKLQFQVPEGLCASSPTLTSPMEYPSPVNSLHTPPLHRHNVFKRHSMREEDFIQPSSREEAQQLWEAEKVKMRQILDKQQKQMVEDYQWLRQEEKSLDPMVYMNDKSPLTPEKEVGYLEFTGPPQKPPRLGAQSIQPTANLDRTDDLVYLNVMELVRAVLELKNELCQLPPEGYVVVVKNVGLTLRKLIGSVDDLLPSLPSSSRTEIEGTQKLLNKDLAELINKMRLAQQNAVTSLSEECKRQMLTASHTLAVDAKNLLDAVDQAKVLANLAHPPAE
Experimental: This assay is used to determine pyk-2 protein kinase activity measuring phosphorylation of a biotinylated peptide as the readout.
a. Yeast transformed with pyk-2.
b. Cell lysates: Yeast cells expressing pyk-2 are pelleted, washed once with water, re-pelleted and stored at −80° C. until use.
as §1, §2
a. Preparation of pyk-2 coated ELISA plate.
1. Coat ELISA plate with 0.5 μg/well anti-pyk-2 mab in 100 μL of pH 9.6 sodium carbonate buffer at 4° C. overnight.
as §3, §4, §5
5. Add 10 μg/well of pyk-2 transformed yeast lysates diluted in Lysis Buffer (0.1 mL total volume per well). (Amount of lysate may vary between hatches.) Shake plate for 20 minutes at room temperature.
as §6, §7, §8, §9
2. Add 0.08 mL Kinase Reaction Mixture per well (containing […] of 10×Kinase Buffer and 10 pM (final concentration) biotin-[…] per well diluted in water.
as §10, §11, §12, §13, §14, §15, §16, §17, §18, §19, §20

FLK-1 receptor = biological target: T3, FLK-1 receptor (Mus musculus, UniProt P35918); experiment: ELISA assay measuring the kinase activity of the FLK-1 receptor in cells engineered to express FLK-1; format: cell-based; conditions: FLK-1 expressing NIH3T3 C7#3 cells, VEGF stimulated; for inhibition at 100 µM: compound at 100 μM
T3 construct: expressed in transfected cells; host or cells: NIH3T3 C7#3 cells
T3 sequence (P35918 20-1345): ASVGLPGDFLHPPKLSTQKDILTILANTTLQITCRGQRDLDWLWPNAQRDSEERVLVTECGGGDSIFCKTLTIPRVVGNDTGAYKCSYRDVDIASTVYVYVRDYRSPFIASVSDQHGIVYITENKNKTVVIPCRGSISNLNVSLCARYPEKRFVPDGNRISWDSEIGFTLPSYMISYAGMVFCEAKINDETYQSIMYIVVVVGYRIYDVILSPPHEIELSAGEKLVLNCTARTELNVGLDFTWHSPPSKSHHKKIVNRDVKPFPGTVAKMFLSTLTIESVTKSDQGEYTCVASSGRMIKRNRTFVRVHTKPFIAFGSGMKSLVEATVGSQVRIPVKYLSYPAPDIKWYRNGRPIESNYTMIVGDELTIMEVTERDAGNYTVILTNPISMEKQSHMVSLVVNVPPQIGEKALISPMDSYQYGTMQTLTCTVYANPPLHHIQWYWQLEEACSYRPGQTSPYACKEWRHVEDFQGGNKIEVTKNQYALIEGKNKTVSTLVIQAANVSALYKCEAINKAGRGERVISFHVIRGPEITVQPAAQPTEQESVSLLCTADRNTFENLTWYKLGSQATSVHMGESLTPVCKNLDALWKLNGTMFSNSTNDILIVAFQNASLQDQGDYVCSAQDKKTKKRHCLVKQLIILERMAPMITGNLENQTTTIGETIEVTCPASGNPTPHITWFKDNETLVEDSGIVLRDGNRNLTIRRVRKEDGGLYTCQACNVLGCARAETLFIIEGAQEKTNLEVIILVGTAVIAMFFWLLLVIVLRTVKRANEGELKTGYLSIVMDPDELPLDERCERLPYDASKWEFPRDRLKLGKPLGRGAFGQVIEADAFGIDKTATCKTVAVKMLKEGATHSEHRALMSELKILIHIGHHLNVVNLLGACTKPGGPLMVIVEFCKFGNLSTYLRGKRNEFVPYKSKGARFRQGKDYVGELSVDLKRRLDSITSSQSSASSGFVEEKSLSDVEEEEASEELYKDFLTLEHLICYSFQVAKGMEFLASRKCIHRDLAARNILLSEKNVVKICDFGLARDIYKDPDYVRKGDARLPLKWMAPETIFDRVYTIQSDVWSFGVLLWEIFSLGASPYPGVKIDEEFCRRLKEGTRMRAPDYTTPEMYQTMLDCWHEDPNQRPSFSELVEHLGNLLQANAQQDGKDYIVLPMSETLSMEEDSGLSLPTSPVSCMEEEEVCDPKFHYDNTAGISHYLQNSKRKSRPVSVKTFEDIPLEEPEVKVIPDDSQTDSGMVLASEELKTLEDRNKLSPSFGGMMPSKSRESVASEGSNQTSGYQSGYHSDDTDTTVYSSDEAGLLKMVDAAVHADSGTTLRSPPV
Experimental: An ELISA assay was conducted to measure the kinase activity of the FLK-1 receptor and more specifically, the inhibition or activation of TK activity on the FLK-1 receptor. Specifically, the following assay was conducted to measure kinase activity of the FLK-1 receptor in cells genetically engineered to express FLK-1.
(11) NIH3T3 C7#3 Cells (FLK-1 expressing cells);
The following protocol was used for conducting the assay:
1. Coat Corning 96-well elisa plates with 1.0 μg per well Cappel Anti-rabbit IgG antibody in 0.1 M Na2CO3 pH 9.6. Bring final volume to 150 μL per well. Coat plates overnight at 4° C. Plates can be kept up to two weeks when stored at 4° C.
2. Grow cells in Growth media (DMEM, supplemental with 2.0 mM L-Glutamine, 10% FBS) in suitable culture dishes until confluent at 37° C., 5% CO2.
3. Harvest cells by trypsinization and seed in Corning 25850 polystyrene 96-well roundbottom cell plates, 25.000 cells/well in 200 μL of growth media.
4. Grow cells at least one day at 37° C., 5% CO2.
5. Wash cells with D-PBS 1×.
6. Add 200 μL/well of starvation media (DMEM, 2.0 mM 1-Glutamine, 0.1% FBS). Incubate overnight at 37° C., 5% CO2.
7. Dilute Compounds 1:20 in polypropylene 96 well plates using starvation media. Dilute dimethylsulfoxide 1:20 for use in control wells.
8. Remove starvation media from 96 well cell culture plates and add 162 μL of fresh starvation media to each well.
9. Add 18 μL of 1:20 diluted Compound dilution (from step 7) to each well plus the 1:20 dimethylsulfoxide dilution to the control wells (+/−VEGF), for a final dilution of 1:200 after cell stimulation. Final dimethylsulfoxide is 0.5%. Incubate the plate at 37° C., 5% CO2 for two hours.
10. Remove unbound antibody from ELISA plates by inverting plate to remove liquid. Wash 3 times with TBSW+0.5% ethanolamine, pH 7.0. Pat the plate on a paper towel to remove excess liquid and bubbles.
11. Block plates with TBSW+0.5% Ethanolamine, pH 7.0, 150 μL per well. Incubate plate thirty minutes while shaking on a microliter plate shaker.
12. Wash plate 3 times as described in step 10.
13. […] Bring final volume to 150 μL/well with TBSW+0.5% ethanolamine pH 7.0. Incubate plate for thirty minutes while shaking.
14. Add 180 μL starvation medium to the cells and stimulate cells with 20 μL/well 10.0 mM sodium ortho vanadate and 500 ng/mL VEGF (resulting in a final concentration of 1.0 mM sodium ortho vanadate and 50 ng/mL VEGF per well) for eight minutes at 37° C., 5% CO2. Negative control wells receive only starvation medium.
15. After eight minutes, media should be removed from the cells and washed one time with 200 μL/well PBS.
16. Lyse cells in 150 μL/well HNTG while shaking at room temperature for five minutes. HNTG formulation includes sodium ortho vanadate, sodium pyro phosphate and EDTA.
17. Wash ELISA plate three times as described in step 10.
18. Transfer cell lysates from the cell plate to ELISA plate and incubate while shaking for two hours. To transfer cell lysate pipette up and down while scrapping the wells.
19. Wash plate three times as described in step 10.
20. Incubate ELISA plate with 0.02 μg/well UB40 in TBSW+05% ethanolamine. Bring final volume to 150 μL/well. Incubate while shaking for 30 minutes.
21. Wash plate three times as described in step 10.
22. Incubate ELISA plate with 1:10,000 diluted EIA grade goat anti-mouse IgG conjugated horseradish peroxidase in TBSW+0.5% ethanolamine, pH 7.0. Bring final volume to 150 μL/well. Incubate while shaking for thirty minutes.
23. Wash plate as described in step 10.
24. Add 100 μL of ABTS/H2O2 solution to well. Incubate ten minutes while shaking.
25. Add 100 μL of 0.2 M HCl for 0.1 M HCl final to stop the color development reaction. Shake 1 minute at room temperature. Remove bubbles with slow stream of air and read the ELISA plate in an ELISA plate reader at 410 nm.
as §20

Row | SMILES | inhibition at 100 µM (src protein kinase) | inhibition at 100 µM (pyk-2 protein kinase) | inhibition at 100 µM (FLK-1 receptor) | IC50 (FLK-1 receptor; cells without % or + sign)
1 | Cc1c(C=C2C(=O)Nc3ccc(S(=O)(=O)N(C)C)cc32)[nH]c2ccccc12 (mixture of isomers) [IN-004, 3-(3-Methyl-1H-indol-2-ylmethylene)-2-oxo-2,3-dihydro-1H-indole-5-sulfonic acid dimethylamide] | -4.6% | 44.4% | 7% | 
2 | CNS(=O)(=O)c1ccc2c(c1)C(=Cc1[nH]c3ccccc3c1C)C(=O)N2 [IN-003, 3-(3-Methyl-1H-indol-2-ylmethylene)-2-oxo-2,3-dihydro-1H-indole-5-sulfonic acid methylamide] |  | 67.5% | 11% | 
3 | O=C1Nc2ccc(Br)cc2C1=Cc1cc2ccccc2[nH]1 [IN-014, 5-Bromo-3-(1H-indol-2-ylmethylene)-1,3-dihydro-indol-2-one] | -2.4% | -14% | 10% | 
4 | Cc1cccc2c1C(=Cc1cc3ccccc3[nH]1)C(=O)N2 [IN-015, 3-(1H-indol-2-ylmethylene)-4-methyl-1,3-dihydro-indol-2-one] | 16% | 3.9% | 26% | 
5 | O=C1Nc2ccc(/N=C/c3cc4ccccc4[nH]3)cc2/C1=C/c1cc2ccccc2[nH]1 [IN-020, 3-(1H-indol-2-ylmethylene)-5-[(1H-indol-2-ylmethylene)-amino]-1,3-dihydro-indol-2-one] | 7.62% | 64.3% |  | > 100 µM
